Assay results from PMC5506005, “A novel protein kinase inhibitor IMB-YH-8 with anti-tuberculosis activity” (Scientific Reports, 2017).
Converted amounts (≈) assume the structure as drawn. Like-named read-outs stand apart in the source and are kept apart here.

Tests used:
[1] = target: PknG (Mycobacterium tuberculosis, UniProt P9WI73); test: In vitro protein kinase assay (Kinase Glo), auto-phosphorylation of PknG; type: biochemical, M. tuberculosis
[2] = tested on: M. tuberculosis H37Rv; test: MIC by microplate Alamar blue assay (MABA), H37Rv; type: cell-based; settings: Mycobacterium tuberculosis
[3] = tested on: M. tuberculosis H37Rv gene transcripts (PknB/SigH regulatory pathways); type: cell-based; settings: 2.5 μg/ml, 4 h; for Real-time reverse transcription PCR Normalized ΔCt (mean ± SD): normalized to sigA mRNA
[4] = tested on: THP-1 cells; settings: calculated as the CC50/MIC (THP-1 / H37Rv)
[5] = target: T1, PknB (Mycobacterium tuberculosis, UniProt P9WI81); test: In vitro protein kinase assay (Kinase Glo), auto-phosphorylation of PknB; type: biochemical, M. tuberculosis; settings: non-radioactive Kinase Glo assay, 100 μM ATP
T1 sequence (P9WI81 11-274 limits assumed): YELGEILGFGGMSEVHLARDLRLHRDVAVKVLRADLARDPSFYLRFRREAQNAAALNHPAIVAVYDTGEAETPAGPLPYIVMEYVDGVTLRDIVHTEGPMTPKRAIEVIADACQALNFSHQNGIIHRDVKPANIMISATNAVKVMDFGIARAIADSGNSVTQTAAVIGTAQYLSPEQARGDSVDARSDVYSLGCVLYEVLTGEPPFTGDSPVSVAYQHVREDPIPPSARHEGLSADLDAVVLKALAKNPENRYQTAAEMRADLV

[6] = target: PknF (Mycobacterium tuberculosis, UniProt P9WI75); test: In vitro protein kinase assay (Kinase Glo), auto-phosphorylation of PknF; type: biochemical, M. tuberculosis
[7] = tested on: clinical isolates of M. tuberculosis; test: microbe, parasite or virus in culture; type: cell-based; settings: Mycobacterium tuberculosis, clinical isolate 31251, sensitive
[8] = target: human kinase Akt1 (Homo sapiens, UniProt P31749); test: In vitro protein kinase assay (Kinase Glo), auto-phosphorylation of Akt1; type: biochemical
[9] = tested on: Mycobacterium smegmatis; design: method as in earlier work; settings: previous high throughput screening study; cited from earlier work
[10] = target: T1, PknB; test: Surface plasmon resonance (BIAcore) binding to PknB; design: species or system M. tuberculosis; settings: single cycle kinetics, 1:1 binding model, 25 °C, read-out: Kd for binding to PknB (SPR)
[11] = tested on: M. tuberculosis H37Rv; test: Scanning electron microscopy of cell morphology; type: cell-based; settings: 1 μg/ml for 5 days, SEM
Protocol: To determine whether IMB-YH-8 affects the morphology of M. tuberculosis H37Rv, scanning electron microscopy (SEM) was performed. H37Rv was grown to early log phase (optical density at 600 nm, ~0.2). Then 1 μg/ml IMB-YH-8 was added to treat cells, followed by incubation at 37 °C for 5 days. Cells were harvested by low-speed centrifugation and washed in 0.1 M phosphate buffer (pH 7.4). The cells were then fixed in 0.1 M phosphate buffer (pH 7.4) containing 2.5% glutaraldehyde and 0.5% paraformaldehyde. The samples were submitted to the Instrument Center of Institute of Microbiology, Chinese Academy of Sciences for further analysis. Observations were carried out using a SEM (SU8010; Hitachi, Tokyo, Japan). Untreated H37Rv were also processed as control.

[12] = target: PknH (Mycobacterium tuberculosis, UniProt P9WI71); test: In vitro protein kinase assay (Kinase Glo), auto-phosphorylation of PknH; type: biochemical
[13] = tested on: M. tuberculosis gene transcripts (PknB/SigH regulatory pathways); test: Gene expression by microarray; type: cell-based; settings: 4 h; for fold induction at 2.5 µg/mL: Mycobacterium tuberculosis; for Regulation: 2.5 μg/ml
Protocol: The drug-treated (2.5 μg/ml IMB-YH-8), together with control (DMSO) mycobacterial cultures, were incubated at 37 °C for 4 h. Total RNAs were isolated by RiboPure^TM-Bacteria Kit (Life Technology, AM1925) according to the manufacturer’s instructions. The quantity and quality of each RNA sample was determined using NanoDrop ND-2000 spectrophotometer (Thermo Scientific, Wilmington, DE) and Agilent 2100 Bioanalyzer (Agilent Technologies, Santa Clara, CA).
The qualified RNA samples were labeled and hybridized on Agilent 4 × 44 K Custom design Gene Expression Microarray according to manufacturer protocol (Agilent, Santa Clara, CA). In brief, 100 ng of each RNA sample was amplified to cRNA and labeled with Cy-3 using Agilent Low Input Quick Amp Labeling Kit. The labeled samples were hybridized for 16 hours at 10 rotations per minute. After hybridization, the arrays were washed and scanned by Agilent scanner and then the image was analyzed by Agilent Feature Extraction v11.5. Data obtained from Feature Extraction were imported to GeneSpring GX version 13.1 (Agilent Technologies, Santa Clara, CA) for 75th percentile shift and baseline to median of all samples normalization.

[14] = tested on: Mycobacterium marinum; design: method as in earlier work; settings: previous high throughput screening study; cited from earlier work
[15] = target: PknB (Mycobacterium tuberculosis, UniProt P9WI81); test: biochemical; type: binding, M. tuberculosis
Target sequence in this assay (P9WI81 1-279 limits assumed): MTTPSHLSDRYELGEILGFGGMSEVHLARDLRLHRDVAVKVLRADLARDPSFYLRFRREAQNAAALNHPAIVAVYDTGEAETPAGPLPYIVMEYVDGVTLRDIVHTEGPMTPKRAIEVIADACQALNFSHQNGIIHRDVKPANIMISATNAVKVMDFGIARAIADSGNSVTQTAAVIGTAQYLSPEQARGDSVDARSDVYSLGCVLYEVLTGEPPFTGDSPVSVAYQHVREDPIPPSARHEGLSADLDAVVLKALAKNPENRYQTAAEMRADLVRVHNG

[16] = tested on: intracellular M. tuberculosis H37Rv; test: Intracellular activity assay in infected THP-1 cells (CFU); type: cell-based; settings: 3 days; for Log10CFU: infected THP-1 cells, mean ± SD, untreated 5.03 ± 0.12
[17] = target: T1, PknB; test: Phosphorylation of GarA by PknB, Phos-tag SDS-PAGE; type: biochemical, M. tuberculosis; settings: non-phosphorylated GarA increased in a dose-dependent manner
Protocol: In vitro phosphorylation of GarA (5 μM) by PknB (3 μM) was carried out in 50 μl reaction mixture (25 mM Tris-HCl (pH = 7.4), 5 mM MgCl2, 2 mM MnCl2). The reaction was initiated with the additional of 100 μM ATP and incubated at 37 °C for 3 hours. The reaction was terminated with the addition of SDS-PAGE sample buffer and heating the mixture at 100 °C for 5 min. The reaction mixtures were analyzed by 12% SDS-PAGE with or without Phos-tag SDS-PAGE to differentiate the phosphorylated and non-phosphorylated GarA. Phos-tag SDS-PAGE was performed with gel containing 20 μM Phos-tag acrylamide (Wako Pure Chemical Industries, Japan) and 100 µM MnCl2 according to the manufacturer’s instructions. Electrophoresis was performed at 4 °C in Tris-glycine SDS-PAGE running buffer at 30 mA for 2 h. Images were adjusted for contrast and brightness using Bio-Rad image lab software version 2.01.

[18] = in vitro; settings: human
[19] = cited from earlier work
[20] = target: T2, PknA (Mycobacterium tuberculosis, UniProt P9WI83); test: In vitro protein kinase assay (Kinase Glo), auto-phosphorylation of PknA; type: biochemical, M. tuberculosis
T2 sequence (P9WI83 1-431): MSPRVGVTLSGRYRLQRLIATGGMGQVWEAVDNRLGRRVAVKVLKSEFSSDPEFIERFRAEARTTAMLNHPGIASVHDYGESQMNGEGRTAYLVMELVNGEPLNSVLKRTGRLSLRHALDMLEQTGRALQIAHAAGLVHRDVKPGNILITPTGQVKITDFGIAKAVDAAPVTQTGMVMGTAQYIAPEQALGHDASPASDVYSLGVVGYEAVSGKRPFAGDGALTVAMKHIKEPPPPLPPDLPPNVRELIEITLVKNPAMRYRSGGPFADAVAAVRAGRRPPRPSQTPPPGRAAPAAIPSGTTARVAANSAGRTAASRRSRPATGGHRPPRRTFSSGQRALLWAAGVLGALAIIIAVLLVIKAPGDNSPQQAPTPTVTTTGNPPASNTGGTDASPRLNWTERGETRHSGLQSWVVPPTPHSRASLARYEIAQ

Chain of PknH (P9WI71 whole entry): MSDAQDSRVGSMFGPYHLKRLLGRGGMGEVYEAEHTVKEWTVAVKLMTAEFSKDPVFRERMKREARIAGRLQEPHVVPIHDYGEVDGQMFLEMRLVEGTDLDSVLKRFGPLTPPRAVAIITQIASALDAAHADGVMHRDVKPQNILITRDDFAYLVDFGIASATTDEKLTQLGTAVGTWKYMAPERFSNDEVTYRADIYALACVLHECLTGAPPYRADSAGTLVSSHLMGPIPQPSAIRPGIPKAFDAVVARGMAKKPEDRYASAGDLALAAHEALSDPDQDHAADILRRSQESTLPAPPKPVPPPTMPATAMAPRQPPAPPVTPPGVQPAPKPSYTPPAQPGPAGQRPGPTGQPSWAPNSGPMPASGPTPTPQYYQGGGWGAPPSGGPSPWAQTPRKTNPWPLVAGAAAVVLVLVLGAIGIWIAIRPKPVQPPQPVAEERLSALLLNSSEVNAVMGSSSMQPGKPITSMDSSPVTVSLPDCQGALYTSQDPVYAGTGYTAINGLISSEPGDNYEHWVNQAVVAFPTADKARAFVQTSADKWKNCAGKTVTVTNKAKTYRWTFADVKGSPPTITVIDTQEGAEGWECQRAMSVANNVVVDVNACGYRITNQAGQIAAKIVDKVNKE
Chain of PknG (P9WI73 whole entry): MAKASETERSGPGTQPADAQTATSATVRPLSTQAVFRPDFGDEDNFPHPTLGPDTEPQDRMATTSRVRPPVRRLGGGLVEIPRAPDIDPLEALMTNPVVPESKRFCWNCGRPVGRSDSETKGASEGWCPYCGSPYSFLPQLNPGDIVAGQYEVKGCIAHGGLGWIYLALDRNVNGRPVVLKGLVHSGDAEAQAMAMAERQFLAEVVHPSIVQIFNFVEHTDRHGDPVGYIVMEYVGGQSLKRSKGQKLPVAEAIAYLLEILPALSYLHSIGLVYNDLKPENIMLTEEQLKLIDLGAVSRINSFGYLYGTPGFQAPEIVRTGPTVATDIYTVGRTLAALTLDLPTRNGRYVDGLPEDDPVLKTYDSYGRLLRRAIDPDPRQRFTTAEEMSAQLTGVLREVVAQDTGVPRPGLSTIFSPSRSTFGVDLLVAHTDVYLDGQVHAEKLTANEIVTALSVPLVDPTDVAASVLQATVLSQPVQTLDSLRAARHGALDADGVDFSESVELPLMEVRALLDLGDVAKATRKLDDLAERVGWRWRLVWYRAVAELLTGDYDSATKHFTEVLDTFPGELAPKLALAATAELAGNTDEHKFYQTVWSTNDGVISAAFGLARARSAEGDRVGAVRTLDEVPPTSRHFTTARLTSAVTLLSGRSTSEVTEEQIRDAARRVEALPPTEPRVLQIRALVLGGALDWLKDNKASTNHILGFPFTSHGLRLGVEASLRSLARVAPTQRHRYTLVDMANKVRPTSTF
Chain of human kinase Akt1 (P31749 whole entry): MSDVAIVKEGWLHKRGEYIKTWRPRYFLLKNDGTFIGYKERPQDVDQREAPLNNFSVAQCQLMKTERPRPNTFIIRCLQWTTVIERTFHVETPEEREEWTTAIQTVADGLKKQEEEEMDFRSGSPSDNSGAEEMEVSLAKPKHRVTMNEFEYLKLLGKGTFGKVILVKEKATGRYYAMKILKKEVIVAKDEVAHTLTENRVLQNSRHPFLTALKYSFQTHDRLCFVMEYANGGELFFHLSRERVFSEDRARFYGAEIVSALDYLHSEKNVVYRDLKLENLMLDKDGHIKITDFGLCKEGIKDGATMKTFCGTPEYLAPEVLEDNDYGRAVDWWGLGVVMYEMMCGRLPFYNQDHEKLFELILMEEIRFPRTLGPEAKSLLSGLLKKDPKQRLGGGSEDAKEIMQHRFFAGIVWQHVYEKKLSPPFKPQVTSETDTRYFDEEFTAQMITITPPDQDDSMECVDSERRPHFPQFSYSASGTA
Chain of PknF (P9WI75 whole entry): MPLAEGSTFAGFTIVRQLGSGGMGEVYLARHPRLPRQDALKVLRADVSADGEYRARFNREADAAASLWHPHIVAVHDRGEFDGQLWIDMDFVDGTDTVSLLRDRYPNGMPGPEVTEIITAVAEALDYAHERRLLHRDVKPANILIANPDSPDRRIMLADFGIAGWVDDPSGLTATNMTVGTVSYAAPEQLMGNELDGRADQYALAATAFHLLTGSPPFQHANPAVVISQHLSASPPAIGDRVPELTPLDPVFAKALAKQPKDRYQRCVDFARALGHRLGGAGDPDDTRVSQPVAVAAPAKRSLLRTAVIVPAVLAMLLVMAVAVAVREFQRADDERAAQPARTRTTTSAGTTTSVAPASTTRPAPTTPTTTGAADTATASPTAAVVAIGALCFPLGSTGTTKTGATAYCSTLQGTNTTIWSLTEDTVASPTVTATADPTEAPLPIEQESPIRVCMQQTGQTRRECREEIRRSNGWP

COC(=O)/C=C/C(=O)c1ccc(OC)cc1 [IMB-YH-8]
IC50 [1]: 349 µM
MIC [2]: 0.25 µg/mL
MIC ([2]; converted from 0.25 μg/ml): 1.14 µM
Real-time reverse transcription PCR Normalized ΔCt (mean ± SD) ([3]; gene Rv2466c): 6.325 ± 2.51
Real-time reverse transcription PCR Mean fold change (2^ΔΔCt Value) ([3]; gene rshA (Rv3221A)): 264.11
Real-time reverse transcription PCR Normalized ΔCt (mean ± SD) ([3]; gene rshA (Rv3221A)): 8.045 ± 0.59
Real-time reverse transcription PCR Mean fold change (2^ΔΔCt Value) ([3]; gene sigH (Rv3223c)): 5.88
Real-time reverse transcription PCR Normalized ΔCt (mean ± SD) ([3]; gene sigH (Rv3223c)): 2.555 ± 0.11
Real-time reverse transcription PCR Mean fold change (2^ΔΔCt Value) ([3]; gene trxB2 (Rv3913)): 7.67
Real-time reverse transcription PCR Normalized ΔCt (mean ± SD) ([3]; gene trxB2 (Rv3913)): 2.940 ± 0.07
Real-time reverse transcription PCR Mean fold change (2^ΔΔCt Value) ([3]; gene trxC (Rv3914)): 5.48
Real-time reverse transcription PCR Normalized ΔCt (mean ± SD) ([3]; gene trxC (Rv3914)): 2.455 ± 0.06
SI, selectivity index [4]: 30.4
IC50 [5]: 20.2 µM
IC50 [6]: 503 µM
MIC [7]: 0.25 µg/mL (≈ 1.14 µM)
IC50 [8]: > 640 µM
inhibition of Mycobacterium smegmatis [9]: inhibited
Kd [10]: 25.3 µM
proportion of ruptured cells [11]: 61.5%
IC50 [12]: > 640 µM
fold induction at 2.5 µg/mL ([13]; read-out: Fold induction in microarray (mean ± SD), gene Rv2466c, 2.5 μg/ml): 6.86 ± 1.93
fold induction at 2.5 µg/mL ([13]; read-out: Fold induction in microarray (mean ± SD), gene rshA (Rv3221A), 2.5 μg/ml): 6.07 ± 0.33
fold induction at 2.5 µg/mL ([13]; read-out: Fold induction in microarray (mean ± SD), gene sigH (Rv3223c), 2.5 μg/ml): 2.92 ± 0.09
fold induction at 2.5 µg/mL ([13]; read-out: Fold induction in microarray (mean ± SD), gene trxB2 (Rv3913), 2.5 μg/ml): 6.9 ± 0.75
fold induction at 2.5 µg/mL ([13]; read-out: Fold induction in microarray (mean ± SD), gene trxC (Rv3914), 2.5 μg/ml): 8.03 ± 0.33
Regulation ([13]; gene Rv2466c): Up
Regulation ([13]; gene rshA (Rv3221A)): Up
Regulation ([13]; gene sigH (Rv3223c)): Up
Regulation ([13]; gene trxB2 (Rv3913)): Up
Regulation ([13]; gene trxC (Rv3914)): Up
inhibition of Mycobacterium marinum [14]: inhibited
Kd [15]: 13.5 µM
ΔG of binding to PknB ([15]; ITC, 25 °C): -6.64 kcal/mol
ΔH of binding to PknB ([15]; ITC, 25 °C): -5.7 kcal/mol
−TΔS of binding to PknB ([15]; ITC, 25 °C): -0.94 kcal/mol
reduction in CFU compared to untreated control ([16]; 0.5 µg/ml): 0.18 log10
Log10CFU ([16]; 0.5 μg/ml): 4.85 ± 0.04
reduction in CFU compared to untreated control ([16]; 1 µg/ml): 0.62 log10
Log10CFU ([16]; 1 μg/ml): 4.41 ± 0.12
reduction in CFU compared to untreated control ([16]; 2 µg/ml): 1.11 log10
Log10CFU ([16]; 2 μg/ml): 3.92 ± 0.11
PknB-catalyzed phosphorylation of GarA [17]: inhibited
CC50 at 48 h [18]: 7.61 µg/mL (≈ 34.6 µM)
time until serum concentrations fall below the therapeutic range ([19]; oral delivery of 200 mg/kg): less than 1 hour
serum Cmax ([19]; rat, in vivo, po, 200 mg/kg): sub-microgram/ml
IC50 [20]: 44.3 µM

NNC(=O)c1ccncc1 [INH, isoniazid, reference compound]
Log10CFU ([16]; 0.5 μg/ml): 3.24 ± 0.05
Log10CFU ([16]; 1 μg/ml): 3.14 ± 0.06
Log10CFU ([16]; 2 μg/ml): 2.57 ± 0.14
